These results are taken from patent publication US20140066438A1, “DOPAMINE RECEPTOR D2 ANTAGONIST FOR PREVENTION AND TREATMENT OF FLAVIVIRUS INFECTION” (Academia Sinica, priority 2012, published 2014).

In test [1] the test system is clathrin-dependent endocytosis. The conditions noted are these: cited from earlier work.
The next test has as its system DENV-2. Nature of the test: Cell-based antiviral assay against DENV-2 (IFA, immunoblotting of NS3, plaque-forming assay). More on the design: species or system Dengue virus serotype 2 (PL046 strain). Here is the method:
(A) PCZ cytotoxicity test. HEK293T cells were treated with solvent control or the indicated concentrations of PCZ for 24 h. AlamarBlue, XTT, and LDH assays were carried out to determine cell viability, cell proliferation, and cytotoxicity, respectively. Data are mean and standard deviation (SD) of 3 independent experiments. […] Representative immunofluorescence microscopy (400× magnification) of cells immunostained for DENV-2 NS3 (green) and DAPI for nuclei (blue). […] Plaque-forming assay of viral progeny production (plaque forming unit, PFU/ml) in culture supernatants of cells in panel C (D). Data are mean and SI) of 2 independent experiments. *P<0.05.
(A) PCZ cytotoxicity test. HEK293T cells were treated with solvent control or the indicated concentrations of PCZ (5, 10, 15, 20 and 25 μM). AlamarBlue, XTT and LDH assays were carried out to determine cell viability, cell proliferation, and cytotoxicity, respectively. […] (D) Plaque-forming assay of viral progeny production (plaque forming unit, PFU/ml): Data are mean and SD of two independent experiments. **P<0.01. […] BHK-21 cells (E) and N18 cells (F) infected with DENV-2 (MOI=0.1) were treated with or without PCZ for 2 days and 1 day, respectively.
HEK293T cells were infected with DENV-2 (MOI=0.1) with or without haloperidol for 1 day.
Monolayers of cells (HEK293T, BHK-21 and N18) in 6- or 12-well plates were infected with DENV-2 at the indicated multiplicity of infection (MOI). Virus was adsorbed for 2 h with the indicated concentrations of PCZ, then cells were washed thoroughly to remove unbound viruses and incubated for an additional 24 to 48 h with or without PCZ. The antiviral effect of PCZ was evaluated by immunofluorescence assay (IFA), immunoblotting and plaque-forming assay.
Cells were fixed with 4% PFA and permeabilized with 0.5% Triton X-100 in PBS.
On the technique in general: In western blotting, separated proteins are transferred to a membrane and probed.

Another test deals with DENV-1. Briefly: Antiviral assay against DENV-1 (NS3 Western blot). The following applies: HEK293T, MOI=0.1, 2 days.
A further test relates to DENV-2 NGC-N strain. Briefly: Animal study: DENV-2 challenge of Stat1-deficient mice. The test is classed as in vivo. The method, then:
Stat1^−/− mice were challenged with 5×10^4 PFU/mouse of DENV-2 NGC-N strain. The protective effect of PCZ dimaleate (A) and PCZ dimethanesulfonate (Novamin Injection) (B) were tested with immediate and 6-h delay treatment. (A) The mice received phosphate buffered saline (PBS; vehicle control, n=10), 5 mg (n=8) or 1 mg (n=8) PCZ-dimaleate/kg body weight/i.p. at the time of infection (immediate treatment), or 5 mg PCZ-dimaleate/kg body weight/i.p. at 6 h post-infection (6-h delay treatment, n=8). Mice received follow-up treatment with PBS (vehicle control) or half the dose of PCZ-dimaleate orally every 12 h until day-10 post infection. […] The days with treatment are marked by arrows. Mice survival was checked daily and the data are presented as percentage of survival.
The mouse experiments were approved and performed in accordance with the guidelines of the Academia Sinica Institutional Animal Care and Utilization Committee. Groups of 5-week-old Stat1-deficient (SaT1^−/−) mice were challenged intraperitoneally (i.p.) with 5×10^4 plaque-forming units (PFU)/mouse of DENV-2 NGC-N strain and simultaneously injected with 30 μl PBS intracranially (i.c.) into the right hemisphere of the brain. To study the efficacy of PCZ-dimaleate administered mainly by an oral route, mice were divided into 4 groups for treatment: PBS (vehicle control); 5 or 1 mg of PCZ/kg body weight/i.p. at the time of infection (immediate treatment); or 5 mg of PCZ/kg body weight/i.p. at 6 h post-infection (6-h delay treatment). Thereafter, twice a day, mice received a half dose of the first treatment orally with PBS (vehicle control) or 2.5 or 0.5 mg of PCZ/kg body weight/oral/12 h up to day 10 post-infection. […] Thereafter, every 2 days, mice received PBS or the same dose of PCZ up to day 10 post-infection. The mice were checked daily for mortality.

Test [2] deals with mouse dopamine D2 receptor (mouse) (UniProt P61168).
mouse dopamine D2 receptor (mouse), sequence (P61168 other isoform, or with tags, fused parts or gaps): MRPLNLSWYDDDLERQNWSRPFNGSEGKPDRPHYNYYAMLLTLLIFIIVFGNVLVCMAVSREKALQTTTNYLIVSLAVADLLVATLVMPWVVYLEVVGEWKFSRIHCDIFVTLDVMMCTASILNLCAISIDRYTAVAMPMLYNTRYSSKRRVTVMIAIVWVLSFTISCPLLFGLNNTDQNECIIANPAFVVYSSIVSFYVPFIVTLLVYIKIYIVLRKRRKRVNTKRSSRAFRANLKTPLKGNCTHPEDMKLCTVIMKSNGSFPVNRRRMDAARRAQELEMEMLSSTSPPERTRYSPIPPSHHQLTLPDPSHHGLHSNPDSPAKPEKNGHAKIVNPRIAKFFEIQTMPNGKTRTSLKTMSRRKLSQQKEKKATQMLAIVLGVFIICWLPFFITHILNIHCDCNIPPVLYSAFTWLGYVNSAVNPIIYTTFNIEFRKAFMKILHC
For test [3], the system named is Japanese encephalitis virus (JEV). Nature of the test: Antiviral assay against JEV (NS3 Western blot). The following applies: BHK-21 cells, MOI=0.1, 2 days. It counts as cell-based.
The mark [4] stands for this setting: 2 mg PCZ/kg body weight/2 days i.p., immediate treatment.

`CN(C)CCCN1c2ccccc2Sc2ccc(Cl)cc21` [Chlorpromazine]: the clathrin-dependent endocytosis entry in test [1] is listed as “inhibits clathrin-dependent endocytosis”.

As for `O=C(CCCN1CCC(O)(c2ccc(Cl)cc2)CC1)c1ccc(F)cc1` [haloperidol], in the test with DENV-2 (HEK293T, MOI=0.1, 1 day), the “antiviral activity against DENV-2 infection (NS3 Western blot)” value is on record as “showed antiviral activity against DENV-2 infection”.

“prochlorperazine dimethanesulfonate [PCZ-Novamin]”: in the test with DENV-2 (DENV-2-infected HEK293T cells, IFA and Western blot), the “protein expression of viral NS3” value is “dose-dependently reduced”. Besides, the EC50 in the test with DENV-2 (HEK293T cells, calculated by a published method, read-out: half-maximal effective concentration (EC50) against DENV-2 infection) is 88.4 nM. The “viral progeny production by plaque-forming assay” value with DENV-2 (HEK293T, DENV-2 MOI=1, 24 h) is reported as “significantly reduced viral progeny production”. Besides, the “DENV-1 replication (NS3 Western blot)” value in the test on DENV-1 was “reduced DENV-1 replication”. Moreover, the DENV-2-induced lethality timing result in the test with DENV-2 NGC-N strain (setting [4]) is “slightly delayed”. Further, the overall survival turned out to be 20% with DENV-2 NGC-N strain (setting [4]) and 40% with DENV-2 NGC-N strain (4 mg PCZ/kg/2 days i.p., immediate treatment). Besides, the “protection against DENV-2 challenge after 10 days of infection” value with DENV-2 NGC-N strain (4 mg PCZ/kg body weight/2 days i.p., immediate treatment) is “completely protected”; in the test on DENV-2 NGC-N strain (8 mg PCZ/kg body weight/2 days i.p., immediate treatment), “completely protected”. Also, in the test on DENV-2 NGC-N strain (4 mg kg body weight/2 days i.p., from 6 h post-infection), the “overall survival and mortality timing” value is recorded as “did not improve the overall survival but delayed the mortality”. For the same compound, the “mice surviving the DENV-2 challenge” value in the test on DENV-2 NGC-N strain (8 mg PCZ/kg body weight/2 days i.p., from 6 h post-infection) was 40%. The “state of mice after treatment stopped at day 10 post-infection” value in the test with DENV-2 NGC-N strain (8 mg PCZ/kg/2 days i.p., immediate treatment) is “remained healthy”.

“DENV-2 PL046 strain (dengue virus serotype 2), whole virion” yielded a fold lower cell-bound virus on D2R-knockdown cells than on controls in test [2] of 6 times.

For the compound `CN1CCN(CCCN2c3ccccc3Sc3ccc(Cl)cc32)CC1` [PCZ-dimaleate, Prochlorperazine dimaleate], the “antiviral effect against DENV-2 infection (NS3 Western blot)” value in the test on DENV-2 (BHK-21 cells, MOI=0.1, 2 days) is listed as “shows antiviral effect against DENV-2 infection”; in the test with DENV-2 (N18 cells, MOI=0.1, 1 day), “shows antiviral effect against DENV-2 infection”. For the same compound, the “antiviral activity against DENV-2 infection” value with DENV-2 (HEK293T, MOI=0.1, PCZ 5, 10 and 15 μM, 2 days) is “exhibits antiviral activity against DENV-2 infection”. In addition, in test [3], the “JEV infection (NS3 Western blot)” value was “inhibits Japanese encephalitis virus (JEV) infection”. The animal mortality timing entry with DENV-2 NGC-N strain (1 mg PCZ/kg body weight/day, immediate treatment) is “delayed animal mortality”. This compound came in with an overall animal survival in the test with DENV-2 NGC-N strain (1 mg PCZ/kg body weight/day, immediate treatment, first i.p. then oral) of 50%. In the test with DENV-2 NGC-N strain (5 mg PCZ/kg body weight, 6-h delay treatment), the death timing result is on record as “delayed death”. The same compound registered an overall survival in the test on DENV-2 NGC-N strain (5 mg PCZ/kg body weight, 6-h delay treatment, 10 days) of 50%. For the same compound, the protection against death entry with DENV-2 NGC-N strain (5 mg/kg body weight/day, immediate treatment, first i.p. then oral, 10 days) was “completely protected against death”.
